How the values were obtained:
mice [1] = test: Glucocorticoid (corticosterone) secretion in mice; type: in vivo; conditions: glucocorticoid, 10 mg/kg the known ID100
Procedure: Blood sampling was performed 2, 5, 8 and 24 h after dosing (n = 3 per sex per dose per sampling time). For blood sampling, mice were anaesthetized under isoflurane, and blood was collected by cardiac puncture. Blood was centrifuged, and plasma was taken and frozen at −80 °C until quantifications of corticosterone by GC–MS/MS.

mice [2] = test: Precipitated withdrawal in THC-dependent mice; type: in vivo
Procedure: From day 1 to days 4–5, mice were injected i.p. with vehicle or THC (20 mg kg^−1) twice per day. On the last day of treatment, mice in the THC group received rimonabant or AEF0117. All other animals received the respective vehicle. […] For the measure of precipitated withdrawal, mice were placed in a novel home cage, and a video camera was positioned in front of each cage to record behavior. Scoring was performed for 1 min every 5-min period. Two withdrawal signs were analyzed—paw tremors and head shaking—because they are the most common signs of THC withdrawal observed in mice[14].

mice [3] = test: Anxiety-related behavior, elevated plus maze, repeated treatment; type: in vivo
Source text: (§1) Anxiety-like behaviors were studied in the elevated plus maze (EPM), a rodent model used to evaluate the putative anxiogenic or anxiolytic effects of pharmacological compounds. Depression-related behaviors were studied using the sucrose preference test as a model of anhedonia, one of the cardinal symptoms of depression.
The EPM apparatus comprises four elevated arms arranged in a cross-like shape, with the two opposite arms enclosed by walls and the other two arms open. For all experiments, mice were placed in the center of the EPM and were free to explore the maze for 5 min after receiving the treatment. The time spent and the number of entries into the open and closed arms were measured by an automatic video tracking system (EthoVision XT version 12, Noldus Information Technology). A decrease in the percentage of visits and/or the time spent in open arms is considered an index of increased anxiety.
(§2) The EPM assessment was done on day 26, and the sucrose preference test was done on day 28.

mice [4] = test: Depression-related behavior, sucrose preference test, repeated treatment; type: in vivo
Source text: as §1
The sucrose preference test was done in the home cage. Two identical bottles, one containing water and the other containing a 2% sucrose solution, were placed in the hopper of each cage. The mice had unlimited access to water and sucrose solutions during the active phase—the dark phase of the light/dark cycle that started at 20:00. The volume of water and of sucrose solution consumed was measured over two […] intervals, the first between 19:00 and 20:30 and the second between 20:30 and 22:00. At each timepoint, the bottles were weighed, and the intake volume was calculated by subtracting the […].
as §2

mice [5] = tested on: mice; set-up: method as in earlier work; conditions: 10 mg/kg, not run in parallel; cited from earlier work
DIO mice = test: Food intake and body weight in diet-induced obese mice, repeated treatment; type: in vivo
Procedure: Body weight and food intake were studied because they are reduced by repeated treatment with rimonabant both in mice[31] and in humans. DIO mice were used because the effects of CB1 antagonists are of greater amplitude in obese mice than in lean mice. Male C57BL/6J mice (8 weeks old) were fed ad libitum with a high-fat diet (HFD) for 8 weeks before the start of the pharmacological treatments. During pharmacological treatments, the HFD was maintained, and food intake and body weight were measured daily. The food consumed was calculated by subtracting the food left in the hoppers from the initial pre-weighed amount.

What does the source list for `Cc1c(C(=O)NN2CCCCC2)nn(-c2ccc(Cl)cc2Cl)c1-c1ccc(Cl)cc1` [rimonabant, Rimonabant]?
N fold ID100 at highest dose tested (mice [1]): 1; Overall effect: precipitated withdrawal in THC-dependent mice (mice [2]; highest dose tested 10 mg/kg, run in parallel): Yes; N fold ID100 at highest dose tested (mice [2]; withdrawal, 10 mg/kg the known ID100): 1; N fold ID100 at highest dose tested (mice [3]; anxiety, 10 mg/kg the known ID100): 1; Overall effect: increase in anxiety-related behaviors (mice [3]; mice, elevated plus maze, highest dose tested 10 mg/kg, run in parallel): Yes; N fold ID100 at highest dose tested (mice [4]; depression, 10 mg/kg the known ID100): 1; Overall effect: increase in depression-related behaviors (mice [4]; mice, sucrose preference test, highest dose tested 10 mg/kg, run in parallel): Yes; Overall effect: increase in glucocorticoid secretion (mice [5]): Yes; body weight in DIO mice vs vehicle (DIO mice; 10 mg/kg): decreased; N fold ID100 at highest dose tested (DIO mice; food-intake, 10 mg/kg the known ID100): 1; Overall effect: inhibition of spontaneous food-intake (DIO mice; mice, highest dose tested 10 mg/kg, run in parallel): Yes

From paper PMC10287566, “Signaling-specific inhibition of the CB1 receptor for cannabis use disorder: phase 1 and phase 2a randomized trials” (Nature Medicine, 2023)
